Broadly, the IC50 is the point on the concentration scale where inhibition reaches its midpoint.

The results in this text go back to patent publication US7579356B2, “Thia-tetraazaacenaphthylene kinase inhibitors” (Janssen Pharmaceutica NV, priority 2005, dated 2009).

The target in this experiment is T1, EGFR (Homo sapiens, UniProt P00533).
T1 construct: The intracellular portion of EGFR started at nucleotide 2189 (corresponding to amino acid 667) and ended at the termination codon; made in house; host or cells: Sf9 insect cells (baculovirus)
T1 sequence (P00533 669-1210 limits assumed): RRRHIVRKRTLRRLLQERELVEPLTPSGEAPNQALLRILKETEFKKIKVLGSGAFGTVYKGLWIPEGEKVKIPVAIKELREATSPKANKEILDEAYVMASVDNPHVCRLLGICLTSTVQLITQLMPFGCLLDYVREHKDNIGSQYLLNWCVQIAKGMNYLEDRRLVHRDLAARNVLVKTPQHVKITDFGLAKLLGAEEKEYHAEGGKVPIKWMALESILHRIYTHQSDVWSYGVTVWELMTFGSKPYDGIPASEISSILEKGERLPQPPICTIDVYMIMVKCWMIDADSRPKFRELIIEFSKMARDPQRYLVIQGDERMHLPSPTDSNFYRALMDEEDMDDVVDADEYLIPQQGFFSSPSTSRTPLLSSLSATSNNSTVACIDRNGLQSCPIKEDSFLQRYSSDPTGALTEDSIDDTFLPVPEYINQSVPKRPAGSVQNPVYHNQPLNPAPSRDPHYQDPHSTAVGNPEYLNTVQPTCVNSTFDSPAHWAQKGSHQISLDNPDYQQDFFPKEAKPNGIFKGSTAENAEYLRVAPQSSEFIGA
In words: EGFR Kinase Assay. The class given is biochemical. As to conditions: GST-EGFR, ATP 5 μM. The source says: The EGFR kinase used was a fusion of Glutathione-S-Transferase (GST) and a PCR amplified intracellular portion of EGFR (Accession Number NM_005228). The intracellular portion of EGFR started at nucleotide 2189 (corresponding to amino acid 667) and ended at the termination codon. The portion was PCR amplified with primers that added the lambda attB sequences to each end, recombined into an entry vector, then into a GST destination vector (as described in Gateway Technologies Manual by Invitrogen Corporation, Carlsbad, Calif.).
The destination vector was recombined in the DH10BAC strain of bacteria to produce a bacmid. The bacmid was transfected into Sf 9 cells and the supernatant containing the baculovirus was collected. The GSTEGFR protein was purified using large cultures of Sf 9 cells infected with stock virus. After an appropriate period of time, the cells were collected and lysed. The GSTEGFR was then purified from the lysate on Glutathione-Sepharose columns (as described by Amersham Biosciences, Buckinghamshire, United Kingdom).
The EGFR substrate was prepared by biotinylating polyGluTyr (128 mg) (Sigma, St. Louis, Mo.) in a 1×PBS buffer incubated together with a 12-fold molar excess of Sulfo-NHS-LC-Biotin on ice for at least 2 hrs. The free biotin was separated from the biotinylated polyGluTyr on a gel filtration column.
A mixture of a 10× kinase buffer (500 mM Tris at pH 8.0, 100 mM Magnesium Chloride and 1 mM Sodium Vanadate), DTT (1 mM final from 500 mM stock), ATP (5 μM final from 10 mM stock), biotinylated polyGluTyr (10 μg/μL stock), γ-^33P ATP (10 μCl/μL stock) and water was added to each well (for a total of 90 μL/well) of a Streptavidin Flashplate (Perkin Elmer, Wellesley, Mass.).
Test compound in 100% DMSO (2 μL) was added to the appropriate wells. Diluted GSTEGFR (1:300 dilution in 50 mM Tris at pH 8.0 and 0.1% bovine serum albumin) (10 μL) was added to the wells to initiate the reactions.
The plates were incubated at 30° C. for 1 hr with shaking. The reacted contents were removed and the plates were sequentially washed three times with a 1×PBS stop buffer (300 μL without Magnesium and Calcium) and 100 mM EDTA. After the final wash, the same stop buffer (200 μL) was added to the wells. The plates were then sealed and read on the TopCount scintillation counter.
Test compounds were assayed in triplicate at 16 concentrations at half-log dilutions starting at 200 uM. A maximum and minimum signal for the assay was determined on each plate. The percent inhibition of a test compound was calculated according to the formula: […]
For a series of test concentrations, the IC50 was derived by graphing percent inhibition against the log of the concentrations tested for a given compound. For those compounds without an IC50, the inhibition values in percent are shown at a test concentration of 2 μM. For compounds with multiple values, each value represents a separate assay result.
Consider `COc1ccc(NC(=O)c2sc3ncnc4c3c2NC(=O)N4c2ccc(F)c(Cl)c2)cc1OC` [Cpd 2, 5-(3-chloro-4-fluoro-phenyl)-4-oxo-4,5-dihydro-3H-1-thia-3,5,6,8-tetraaza-acenaphthylene-2-carboxylic acid (3,4-dimethoxy-phenyl)-amide], for which the midpoint of inhibition, the IC50, lay at 37 nM.

Molecule `O=C(Nc1nccs1)c1sc2ncnc3c2c1NC(=O)N3c1ccc(F)c(Cl)c1` [Cpd 4, 5-(3-chloro-4-fluoro-phenyl)-4-oxo-4,5-dihydro-3H-1-thia-3,5,6,8-tetraaza-acenaphthylene-2-carboxylic acid thiazol-2-ylamide] had an IC50 of 72 nM.

For the molecule `O=C(Nc1cccnc1)c1sc2ncnc3c2c1NC(=O)N3c1ccc(F)c(Cl)c1` [Cpd 5, 5-(3-chloro-4-fluoro-phenyl)-4-oxo-4,5-dihydro-3H-1-thia-3,5,6,8-tetraaza-acenaphthylene-2-carboxylic acid pyridin-3-ylamide], the IC50 worked out at 69 nM.

In turn, `O=C(Nc1ccc(NCCCN2CCOCC2)nc1)c1sc2ncnc3c2c1NC(=O)N3c1ccc(F)c(Cl)c1` [Cpd 6, 5-(3-chloro-4-fluoro-phenyl)-4-oxo-4,5-dihydro-3H-1-thia-3,5,6,8-tetraaza-acenaphthylene-2-carboxylic acid [6-(3-morpholin-4-yl-propylamino)-pyridin-3-yl]-amide] came in with an IC50 of 83 nM.

As for `O=C1Nc2c(-c3ccccc3)sc3ncnc(c23)N1c1ccc(F)c(Cl)c1` [Cpd 8, 5-(3-chloro-4-fluoro-phenyl)-2-phenyl-3H,5H-1-thia-3,5,6,8-tetraaza-acenaphthylen-4-one], the IC50 came out at 542 nM.

Consider `O=C(Nc1ccc(CNC[C@H]2CCCO2)cc1)c1sc2ncnc3c2c1NC(=O)N3c1ccc(F)c(Cl)c1` [Cpd 17, 5-(3-chloro-4-fluoro-phenyl)-4-oxo-4,5-dihydro-3H-1-thia-3,5,6,8-tetraaza-acenaphthylene-2-carboxylic acid [4-({[(2R)-tetrahydro-furan-2-ylmethyl]-amino}-methyl)-phenyl]-amide], for which the IC50 came to 44 nM.

`COc1cc(NC(=O)c2sc3ncnc4c3c2NC(=O)N4c2ccc(F)c(Cl)c2)ccc1O` [Cpd 19, 5-(3-chloro-4-fluoro-phenyl)-4-oxo-4,5-dihydro-3H-1-thia-3,5,6,8-tetraaza-acenaphthylene-2-carboxylic acid (4-hydroxy-3-methoxy-phenyl)-amide] showed an IC50 of 43 nM. The IC50 values of the last two molecules are within 1.5-fold of each other.

Molecule `COc1cc(NC(=O)c2sc3ncnc4c3c2NC(=O)N4c2ccc(F)c(Cl)c2)ccc1OCCN1CCOCC1` [Cpd 20, 5-(3-chloro-4-fluoro-phenyl)-4-oxo-4,5-dihydro-3H-1-thia-3,5,6,8-tetraaza-acenaphthylene-2-carboxylic acid [3-methoxy-4-(2-morpholin-4-yl-ethoxy)-phenyl]-amide] gave an IC50 of 30 nM.

In turn, `COc1cc(NC(=O)c2sc3ncnc4c3c2NC(=O)N4c2ccc(F)c(Cl)c2)ccc1OCCCN1CCCCC1` [Cpd 21, 5-(3-chloro-4-fluoro-phenyl)-4-oxo-4,5-dihydro-3H-1-thia-3,5,6,8-tetraaza-acenaphthylene-2-carboxylic acid [3-methoxy-4-(3-piperidin-1-yl-propoxy)-phenyl]-amide] returned an IC50 of 27 nM.

In turn, `COc1cc(NC(=O)c2sc3ncnc4c3c2NC(=O)N4c2ccc(F)c(Cl)c2)ccc1OCCC1CCNCC1` [Cpd 22, 5-(3-chloro-4-fluoro-phenyl)-4-oxo-4,5-dihydro-3H-1-thia-3,5,6,8-tetraaza-acenaphthylene-2-carboxylic acid [3-methoxy-4-(2-piperidin-4-yl-ethoxy)-phenyl]-amide] yielded an IC50 of 42 nM.

As to `NCc1ccc(NC(=O)c2sc3ncnc4c3c2NC(=O)N4c2ccc(F)c(Cl)c2)cn1` [Cpd 23, 5-(3-chloro-4-fluoro-phenyl)-4-oxo-4,5-dihydro-3H-1-thia-3,5,6,8-tetraaza-acenaphthylene-2-carboxylic acid (6-aminomethyl-pyridin-3-yl)-amide], the IC50 was 27 nM. Against the preceding molecule, the IC50 is about 1.6-fold lower.
